Data published in EPA's ToxValDB 9.5 (doi:10.2903/j.efsa.2016.4452).

Columns and labels:
Anas platyrhynchos = conditions: reproductive; duration: 20 weeks; oral; feed; M
Canidae = conditions: chronic; duration: 1 years; oral; Dog Other; organ weight
Pimephales promelas = conditions: chronic/long-term; duration: 28 days; reproduction
Folsomia candida = conditions: chronic/long-term; duration: 28 days
Oryctolagus sp. = conditions: reproduction developmental; no effects
Apis mellifera = conditions: acute, mortality
Daphnia magna = conditions: chronic/long-term; duration: 21 days; reproduction
Bibionidae = conditions: chronic/long-term; duration: 28 days; reproduction
Lepomis macrochirus = conditions: acute; duration: 96 hours; mortality
Colinus virginianus = conditions: acute, oral, diet, mortality
Aphidius rhopalosiphi = assay: LR50; higher = less toxic; conditions: not reported; mortality

Structure (SMILES) | NOAEL (Anas platyrhynchos) [mg/kg-day] | LOAEL (Canidae) [mg/kg-day] | NOEC (Pimephales promelas) [mg/L] | NOEC (Folsomia candida) [mg/kg] | NOAEL (Oryctolagus sp.) [mg/kg-day] | LC50 (Tagia sp.; acute, duration: 14 days, mortality) [mg/kg] | NOEC (Tagia sp.; chronic/long-term, duration: 56 days) [mg/kg] | LD50 (Rattus norvegicus; acute, oral, mortality) [mg/kg-day] | NOAEL (Rattus norvegicus; reproduction developmental, no effects) [mg/kg-day] | LD50 (Apis mellifera; dermal) [µg/piece] | LD50 (Apis mellifera; oral, unspecified) [µg/piece] | NOEC (Daphnia magna) [mg/L] | NOEC (Bibionidae) [mg/kg] | LC50 (Lepomis macrochirus) [µg/mL] | LD50 (Colinus virginianus; duration: 8 days) [mg/kg-day] | LD50 (Colinus virginianus; duration: 14 days) [mg/kg-day] | LR50 (Aphidius rhopalosiphi) [g/ha]
CC(NC(=O)c1cc(Cl)cc(Br)c1NC(=O)c1cc(Br)nn1-c1ncccc1Cl)C1CC1 (stereo not drawn) [Cyclaniliprole] | 2.7 | 1.29 | 0.2 | 1.25 | 1000 | > 500 | 500 | > 2000 | 1000 | 0.486 | 0.194 | 0.015 | 0.061 | > 0.15 | > 1000 | > 2000 | 0.507
O=c1[nH]c(-c2cc(Br)nn2-c2ncccc2Cl)nc2c(Br)cc(Cl)cc12 [Cyclaniliprole metabolite (NSY-28)] | – | 1.29 | – | – | – | – | – | – | – | – | – | – | – | – | – | – | –
